Measured values from ChEMBL document CHEMBL1201862, “PubChem BioAssay data set” (2004).
Calls of active or inactive are those of the source.

Legend:
[1] = target: T1, Leucine aminopeptidase (Plasmodium falciparum 3D7, UniProt Q8IL11); test: P. falciparum M17LAP inhibitors, primary screen, biochemical, fluorogenic H-Leu-NHMec substrate, 1536-well (AID 1619); assay type: functional
T1 sequence (Q8IL11 whole entry): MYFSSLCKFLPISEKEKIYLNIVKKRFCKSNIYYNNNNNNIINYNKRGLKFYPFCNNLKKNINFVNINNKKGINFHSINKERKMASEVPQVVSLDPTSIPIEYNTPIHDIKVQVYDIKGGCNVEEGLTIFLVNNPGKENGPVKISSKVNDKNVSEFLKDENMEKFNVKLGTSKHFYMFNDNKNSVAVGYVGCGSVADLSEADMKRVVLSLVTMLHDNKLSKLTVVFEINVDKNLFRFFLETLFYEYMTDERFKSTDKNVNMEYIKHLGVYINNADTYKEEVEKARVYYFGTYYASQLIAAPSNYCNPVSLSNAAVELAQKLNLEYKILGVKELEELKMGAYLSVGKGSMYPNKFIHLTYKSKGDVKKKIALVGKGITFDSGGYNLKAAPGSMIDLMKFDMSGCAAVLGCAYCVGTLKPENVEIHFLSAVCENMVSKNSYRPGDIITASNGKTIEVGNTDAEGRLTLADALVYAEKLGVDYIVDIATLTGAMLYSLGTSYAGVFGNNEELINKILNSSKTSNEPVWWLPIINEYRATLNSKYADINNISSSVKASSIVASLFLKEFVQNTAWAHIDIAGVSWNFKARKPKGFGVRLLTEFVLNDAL

[2] = target: Aspartyl aminopeptidase (Plasmodium falciparum 3D7, UniProt Q8I2J3); test: Counterscreen for inhibitors of M1 and M17 aminopeptidases: QFRET-based biochemical high throughput dose response assay for inhibitors of the Plasmodium falciparum M18 Aspartyl Aminopeptidase (PFM18AAP). [Related PubChem assays: 1619 (Screening assay (M17LAP inhibitors).), 1445 (Screening assay (M1AAP inhibitors).)]
[3] = target: Procathepsin L (Homo sapiens, UniProt P07711); test: cathepsin L inhibitors, dose response, counter-screen for M1/M17 aminopeptidase inhibitor project, biochemical, QFRET, 1536-well (AID 2214)
[4] = target: T2, Replicative DNA helicase DnaB (Mycobacterium tuberculosis, UniProt P9WMR3); test: DnaB intein splicing inhibitors, dose response, biochemical, cell-free fluorescence (AID 449749); assay type: functional
T2 sequence (P9WMR3 whole entry): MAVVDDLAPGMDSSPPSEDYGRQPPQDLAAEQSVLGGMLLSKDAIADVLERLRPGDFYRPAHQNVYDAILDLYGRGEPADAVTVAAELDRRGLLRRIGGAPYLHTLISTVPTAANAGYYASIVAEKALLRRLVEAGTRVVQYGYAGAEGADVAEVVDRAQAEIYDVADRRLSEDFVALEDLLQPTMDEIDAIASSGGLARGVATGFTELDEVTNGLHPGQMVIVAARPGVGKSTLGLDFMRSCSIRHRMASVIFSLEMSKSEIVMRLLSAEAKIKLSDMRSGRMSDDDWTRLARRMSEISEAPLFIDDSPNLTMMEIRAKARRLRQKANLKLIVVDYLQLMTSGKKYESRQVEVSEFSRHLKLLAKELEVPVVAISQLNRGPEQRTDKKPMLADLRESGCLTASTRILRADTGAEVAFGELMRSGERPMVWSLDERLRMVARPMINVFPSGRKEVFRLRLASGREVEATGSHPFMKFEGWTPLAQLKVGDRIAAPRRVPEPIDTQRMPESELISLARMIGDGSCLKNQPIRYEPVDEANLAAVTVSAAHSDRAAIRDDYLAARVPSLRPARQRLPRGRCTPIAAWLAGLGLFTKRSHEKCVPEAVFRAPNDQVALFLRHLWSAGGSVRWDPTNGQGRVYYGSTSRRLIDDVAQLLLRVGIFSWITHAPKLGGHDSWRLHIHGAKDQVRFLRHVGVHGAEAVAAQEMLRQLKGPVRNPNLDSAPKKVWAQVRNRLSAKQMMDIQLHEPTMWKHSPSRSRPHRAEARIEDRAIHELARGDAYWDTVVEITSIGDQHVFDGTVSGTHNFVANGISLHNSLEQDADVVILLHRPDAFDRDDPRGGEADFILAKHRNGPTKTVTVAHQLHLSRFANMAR

[5] = target: T3, Protein RecA (Mycobacterium tuberculosis, UniProt P9WHJ3); test: Fluorescence Cell-Free Homogeneous Dose Retest to Identify Inhibitors of RecA-Intein Splicing Activity. [Related pubchem assays (depositor defined):AID2097, AID2223, AID489010, AID492950]; assay type: functional
T3 sequence (P9WHJ3 whole entry): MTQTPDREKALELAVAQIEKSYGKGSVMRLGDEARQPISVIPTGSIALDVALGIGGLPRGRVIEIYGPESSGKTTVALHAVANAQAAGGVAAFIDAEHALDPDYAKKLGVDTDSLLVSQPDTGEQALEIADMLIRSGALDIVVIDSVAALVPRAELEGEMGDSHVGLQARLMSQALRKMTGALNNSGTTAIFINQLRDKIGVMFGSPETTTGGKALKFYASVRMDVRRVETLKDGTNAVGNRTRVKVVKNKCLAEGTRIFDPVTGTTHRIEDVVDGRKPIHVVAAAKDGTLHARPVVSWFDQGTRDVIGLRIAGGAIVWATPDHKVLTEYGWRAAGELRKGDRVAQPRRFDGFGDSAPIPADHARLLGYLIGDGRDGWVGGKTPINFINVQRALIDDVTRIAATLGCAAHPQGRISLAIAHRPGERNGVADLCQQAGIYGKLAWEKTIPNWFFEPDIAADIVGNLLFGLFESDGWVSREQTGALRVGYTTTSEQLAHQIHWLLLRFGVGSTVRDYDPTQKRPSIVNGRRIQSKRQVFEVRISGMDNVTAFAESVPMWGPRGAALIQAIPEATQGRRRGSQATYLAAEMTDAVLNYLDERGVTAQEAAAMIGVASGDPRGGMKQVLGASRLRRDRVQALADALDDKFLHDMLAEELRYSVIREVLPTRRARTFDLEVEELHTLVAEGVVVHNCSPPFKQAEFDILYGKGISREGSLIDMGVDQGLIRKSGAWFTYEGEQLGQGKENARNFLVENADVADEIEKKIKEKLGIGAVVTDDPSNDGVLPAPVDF

[6] = HEp-2 cell cytotoxicity, dose response, cytotoxicity control for RSV inhibitor project, HTS (AID 2410); assay type: functional; conditions: human respiratory syncytial virus
[7] = tested on: Vero; test: host cell cytotoxicity of antiviral hits, dose response, cytotoxicity control for West Nile virus antiviral project, secondary assay (AID 1650); assay type: functional; conditions: Chlorocebus sabaeus
[8] = tested on: Vero; test: West Nile virus antiviral activity, cell-based, CPE readout (AID 1621); assay type: functional; conditions: Chlorocebus sabaeus
[9] = target: T4, Microphthalmia-associated transcription factor (Homo sapiens, UniProt O75030); test: TRPM1 promoter luciferase signal decrease, dose response, MITF inhibitor project, cell-based, SK-MEL-5, cherry-picked, set 3 (AID 493073); assay type: functional
T4 sequence (O75030 whole entry): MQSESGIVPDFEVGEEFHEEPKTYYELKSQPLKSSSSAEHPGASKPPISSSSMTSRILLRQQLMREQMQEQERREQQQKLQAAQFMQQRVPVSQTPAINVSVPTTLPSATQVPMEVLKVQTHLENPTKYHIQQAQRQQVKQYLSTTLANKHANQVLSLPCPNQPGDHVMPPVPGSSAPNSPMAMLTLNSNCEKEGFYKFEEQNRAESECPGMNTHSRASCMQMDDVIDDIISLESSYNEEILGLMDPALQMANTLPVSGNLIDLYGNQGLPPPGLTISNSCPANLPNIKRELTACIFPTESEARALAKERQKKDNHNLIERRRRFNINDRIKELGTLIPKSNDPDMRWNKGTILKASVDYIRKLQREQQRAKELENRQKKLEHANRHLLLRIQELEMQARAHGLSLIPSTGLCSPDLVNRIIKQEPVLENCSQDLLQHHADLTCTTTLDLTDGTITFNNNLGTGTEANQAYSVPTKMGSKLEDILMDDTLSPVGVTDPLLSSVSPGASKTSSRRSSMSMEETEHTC

[10] = tested on: Vero; test: cells; assay type: functional, cell-based; conditions: Chlorocebus sabaeus
[11] = tested on: Vero; test: cells; assay type: functional; conditions: Chlorocebus sabaeus
[12] = target: G-protein coupled receptor 55 (Homo sapiens, UniProt Q9Y2T6); test: GPR55 antagonists blocking LPI-driven arrestin recruitment, primary screen, imaging, U2OS, beta-arrestin-GFP, LPI agonist (AID 2013); assay type: functional;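 also: antagonist potency measured as reduced agonist-driven arrestin aggregation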
[13] = cytotoxicity in HPDE-C7 cells, cell-based, fluorescence, HTS (AID 430); assay type: functional; conditions: Homo sapiens
[14] = cytotoxicity in KRAS-transformed pancreatic duct cells, primary screen, cell-based, fluorescence, HTS (AID 431); assay type: functional; conditions: Homo sapiens;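 also: cell line used: HPDE-C7K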
[15] = growth suppression of PTEN-null colon cells, dose response, cell-based, HCT116 PTEN knockout (AID 1047); assay type: functional;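 also: HCT116 colon tumor cells with PTEN knocked out; cells exposed to compound for 60 hours before readout; potency for loss of cell viability measured by luminescence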
[16] = growth suppression of beta-catenin-knockout colon cells, dose response, cell-based, HCT116, human colon tumor (AID 1045); assay type: functional;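 also: HCT116 colon tumor cells with beta catenin knocked out; cells exposed to compound for 60 hours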
[17] = inhibitors of HIV Env-driven cell fusion, dose response, cherry-pick (AID 652057); assay type: functional, cell-based
[18] = ZM109 Env clade C HIV-1 fusion inhibitors, dose response, HeLa effector, CEM target cells, luciferase, cherry-pick (AID 652058); assay type: functional, cell-based
[19] = off-target signal loss in HeLa-CEM21 co-culture – HeLa F-luc CTL cells, cherry-picked, counter-screen for HIV-1 Env fusion inhibitor project, dose response (AID 652040); assay type: functional, cell-based;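 also: potency for signal decrease marking cytotoxic or nonspecific inhibition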
[20] = inhibitors of clade B AD8 Env fusion, dose response, cell-based, cherry-pick (AID 652062); assay type: functional;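 also: luciferase signal from cell-cell fusion driven by HIV-1 clade B AD8 Env; potency is for inhibitors of fusion seen as a drop in luminescence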
[21] = target: T5, Estrogen receptor beta (Homo sapiens, UniProt Q92731);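 also: recombinant ER-beta bound to coactivator SRC1 peptide in presence of estradiol agonist; inhibitors block coactivator peptide binding and lower the FRET signal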
[22] = target: T5, Estrogen receptor beta; test: ERβ–SRC-3 coactivator interaction inhibitors, confirmation, orthogonal assay, biochemical, ELISA, streptavidin-HRP readout (AID 1060)

T5 sequence (Q92731 whole entry): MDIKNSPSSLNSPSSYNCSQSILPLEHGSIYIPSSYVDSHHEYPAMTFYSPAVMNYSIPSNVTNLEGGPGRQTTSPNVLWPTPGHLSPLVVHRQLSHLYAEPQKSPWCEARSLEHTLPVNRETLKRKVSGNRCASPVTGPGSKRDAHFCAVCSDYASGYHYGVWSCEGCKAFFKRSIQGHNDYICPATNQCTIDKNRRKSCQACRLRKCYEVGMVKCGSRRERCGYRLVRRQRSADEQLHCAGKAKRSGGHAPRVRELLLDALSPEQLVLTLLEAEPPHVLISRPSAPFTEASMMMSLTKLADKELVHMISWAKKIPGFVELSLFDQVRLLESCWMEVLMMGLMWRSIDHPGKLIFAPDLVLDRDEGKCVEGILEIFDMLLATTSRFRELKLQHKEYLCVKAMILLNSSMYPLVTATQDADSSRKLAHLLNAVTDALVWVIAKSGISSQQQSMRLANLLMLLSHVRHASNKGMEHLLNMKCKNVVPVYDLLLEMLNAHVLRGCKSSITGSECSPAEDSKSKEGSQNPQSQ
Aspartyl aminopeptidase, sequence (Q8I2J3 whole entry): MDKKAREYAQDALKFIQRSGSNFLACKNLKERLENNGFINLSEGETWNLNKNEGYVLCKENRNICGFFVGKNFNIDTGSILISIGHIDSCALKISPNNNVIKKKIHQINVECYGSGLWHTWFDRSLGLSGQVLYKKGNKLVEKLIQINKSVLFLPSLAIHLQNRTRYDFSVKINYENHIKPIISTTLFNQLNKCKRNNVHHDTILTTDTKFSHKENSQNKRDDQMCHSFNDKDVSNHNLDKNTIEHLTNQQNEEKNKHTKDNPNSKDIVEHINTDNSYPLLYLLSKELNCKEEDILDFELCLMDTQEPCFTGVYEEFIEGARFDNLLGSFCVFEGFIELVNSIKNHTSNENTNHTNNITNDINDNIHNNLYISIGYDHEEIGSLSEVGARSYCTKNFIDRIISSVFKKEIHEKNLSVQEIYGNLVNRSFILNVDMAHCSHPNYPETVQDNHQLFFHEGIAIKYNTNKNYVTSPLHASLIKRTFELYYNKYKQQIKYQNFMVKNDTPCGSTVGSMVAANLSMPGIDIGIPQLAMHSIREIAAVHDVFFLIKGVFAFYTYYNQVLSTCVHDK
G-protein coupled receptor 55, sequence (Q9Y2T6 whole entry): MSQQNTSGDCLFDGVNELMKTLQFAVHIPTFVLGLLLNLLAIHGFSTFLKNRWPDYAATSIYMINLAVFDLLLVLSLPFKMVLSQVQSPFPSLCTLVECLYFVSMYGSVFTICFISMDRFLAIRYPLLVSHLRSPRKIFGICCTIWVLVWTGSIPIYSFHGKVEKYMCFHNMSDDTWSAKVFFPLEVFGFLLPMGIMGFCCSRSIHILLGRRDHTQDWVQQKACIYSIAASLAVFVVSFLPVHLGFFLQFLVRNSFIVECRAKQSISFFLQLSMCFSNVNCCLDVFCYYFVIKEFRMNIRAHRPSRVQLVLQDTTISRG
Procathepsin L, sequence (P07711 whole entry): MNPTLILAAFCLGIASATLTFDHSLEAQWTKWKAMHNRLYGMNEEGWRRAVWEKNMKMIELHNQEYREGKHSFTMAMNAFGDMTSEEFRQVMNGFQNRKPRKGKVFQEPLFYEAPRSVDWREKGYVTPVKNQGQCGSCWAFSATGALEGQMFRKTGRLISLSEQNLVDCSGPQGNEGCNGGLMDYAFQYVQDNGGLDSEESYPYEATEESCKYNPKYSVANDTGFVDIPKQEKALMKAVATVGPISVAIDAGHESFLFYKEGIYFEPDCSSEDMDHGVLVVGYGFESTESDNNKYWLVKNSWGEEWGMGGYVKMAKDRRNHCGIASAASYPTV

O=[N+]([O-])c1cccc(-c2cc(O)n[nH]2)c1
IC50 [1]: 6.99 µM (active)
IC50 [2]: > 73.5 µM (not active)
IC50 [3]: > 59.6 µM (not active)
AC50 [4]: 7.14 µM (active)
EC50 [5]: 2.57 µM (active)

NCCCNc1nc(N)c([N+](=O)[O-])c(NC2CCCCC2)n1
CC50 [6]: 18.2 µM (active)
CC50 [7]: 13.4 µM (active)
IC50 [8]: 8.89 µM (active)
AC50 [9]: 6.36 µM (active)
IC50 [10]: 6 µM (active)
CC50 [11]: 11.6 µM (active)

COc1ccc(CCN2C(=O)c3[nH]nc(-c4ccccc4O)c3C2c2ccc(C)cc2)cc1OC (configuration not stated)
IC50 [12]: 2.9 µM (active)
EC50 [13]: 8.11 µM (active)
EC50 [14]: 9.9 µM (active)
EC50 [15]: 21.1 µM (active)
EC50 [16]: 21.6 µM (active)
AC50 [17]: 2.11 µM (active)
AC50 [18]: 2.58 µM (active)
AC50 [19]: 3.34 µM (active)
AC50 [20]: 6.57 µM (active)

CC1CCCCN1CC(=O)Nc1sc2c(c1C#N)CCC2 (configuration not stated)
IC50 [21]: > 50 µM (not active)
IC50 [22]: > 50 µM (not active)
